In patent publication US10206397B2, “N-acylimino heterocyclic compounds” (BASF SE, priority 2013, dated 2019):

Experiments:
Assay type in all cases: in vivo
[1] = test system: green peach aphid (Myzus persicae); assay: Green peach aphid systemic test, artificial diet in 96-well microtiter plates; settings: 72 h, read-out: mortality in comparison with untreated controls
Excerpt: B.1 Green Peach Aphid (Myzus persicae)
For evaluating control of green peach aphid (Myzus persicae) through systemic means, the test unit consists of 96-well-microtiter plates containing liquid artificial diet under an artificial membrane.
The compounds are formulated using a solution containing 75% v/v water and 25% v/v DMSO. Different concentrations of formulated compounds are pipetted into the aphid diet, using a custom built pipetter, at two replications.
After application, 5-8 adult aphids are placed on the artificial membrane inside the microtiter plate wells. The aphids are then allowed to suck on the treated aphid diet and incubated at about 23+1° C. and about 50+5% relative humidity for 3 days. Aphid mortality and fecundity is then visually assessed.

[2] = test system: vetch aphid (Megoura viciae); assay: Vetch aphid contact/systemic test on broad bean leaf disks; settings: foliar, 120 h, read-out: mortality in comparison with untreated controls
Protocol: B.2 Vetch Aphid (Megoura viciae)
For evaluating control of vetch aphid (Megoura viciae) through contact or systemic means the test unit consisted of 24-well-microtiter plates containing broad bean leaf disks.
The compounds were formulated using a solution containing 75% v/v water and 25% v/v DMSO. Different concentrations of formulated compounds were sprayed onto the leaf disks at 2.5 μl, using a custom built micro atomizer, at two replications.
After application, the leaf disks were air-dried and 5-8 adult aphids were placed on the leaf disks inside the microtiter plate wells. The aphids were then allowed to suck on the treated leaf disks and were incubated at about 23±1° C. and about 50±5% relative humidity for 5 days. Aphid mortality and fecundity was then visually assessed.

[3] = test system: Cotton aphid (Aphis gossypii); assay: Cotton aphid spray test on potted plants; settings: 72 h, read-out: mortality in comparison with untreated controls
Protocol: B.3 Cotton aphid (Aphis gossypii)
(§1) The active compound is dissolved at the desired concentration in a mixture of 1:1 (vol:vol) distilled water:acetone. Surfactant (Alkamuls® EL 620) is added at a rate of 0.1% (vol/vol). The test solution is prepared at the day of use.
(§2) Potted cowpea plants were colonized with approximately 50-100 aphids of various stages by manually transferring a leaf tissue cut from infested plant 24 hours before application. Plants were sprayed after the pest population has been recorded. Treated plants are maintained on light carts at about 28° C. Percent mortality was assessed after 72 hours.

[4] = test system: Cowpea Aphid (Aphis craccivora); assay: Cowpea aphid spray test on potted cowpea plants; settings: 72 h, read-out: mortality in comparison with untreated controls
Protocol: B.4 Cowpea Aphid (Aphis craccivora)
as §1
as §2, with “are” for “were”, “is” for “was”

[5] = test system: Silverleaf Whitefly (bemisia argentifolii); assay: Silverleaf whitefly spray test on cotton plants; settings: 72 h, read-out: mortality in comparison with untreated controls
Excerpt: B.5 Silverleaf Whitefly (bemisia argentifolii)
The active compounds are formulated in cyclohexanone as a 10,000 ppm solution supplied in tubes. The tubes are inserted into an automated electrostatic sprayer equipped with an atomizing nozzle and they serve as stock solutions for which lower dilutions are made in 50% acetone:50% water (v/v). A nonionic surfactant (Kinetic®) is included in the solution at a volume of 0.01% (v/v).
Cotton plants at the cotyledon stage (one plant per pot) are sprayed by an automated electrostatic plant sprayer equipped with an atomizing spray nozzle. The plants are dried in the sprayer fume hood and then removed from the sprayer. Each pot is placed into a plastic cup and about 10 to 12 whitefly adults (approximately 3-5 days old) are introduced. The insects are collected using an aspirator and a nontoxic Tygon® tubing connected to a barrier pipette tip. The tip, containing the collected insects, is then gently inserted into the soil containing the treated plant, allowing insects to crawl out of the tip to reach the foliage for feeding. Cups are covered with a reusable screened lid. […] Mortality is assessed 3 days after treatment, compared to untreated control plants.

[6] = test system: Orchid Thrips (dichromothrips corbetti); assay: Orchid thrips floral-immersion test; settings: 72 h, read-out: mortality in comparison with untreated controls
Protocol: B.6 Orchid Thrips (dichromothrips corbetti)
Dichromothrips corbetti adults used for bioassay are obtained from a colony maintained continuously under laboratory conditions. For testing purposes, the test compound is diluted in a 1:1 mixture of acetone:water (vol:vol), plus 0.01% vol/vol Alkamuls® EL 620 surfactant.
Thrips potency of each compound is evaluated by using a floral-immersion technique. Plastic petri dishes are used as test arenas. All petals of individual, intact orchid flowers are dipped into treatment solution and allowed to dry. Treated flowers are placed into individual petri dishes along with about 20 adult thrips. The petri dishes are then covered with lids. All test arenas are held under continuous light and a temperature of about 28° C. for duration of the assay. After 3 days, the numbers of live thrips are counted on each flower, and along inner walls of each petri dish. The percent mortality is recorded 72 hours after treatment.

[7] = test system: Rice Green Leafhopper (Nephotettix virescens); assay: Rice green leafhopper spray test on rice seedlings; settings: 72 h, read-out: mortality in comparison with untreated controls
Protocol: B.7 Rice Green Leafhopper (Nephotettix virescens)
(§3) Rice seedlings are cleaned and washed 24 hours before spraying. The active compounds are formulated in 50:50 acetone:water (vol:vol), and 0.1% vol/vol surfactant (EL 620) is added. Potted rice seedlings are sprayed with 5 ml test solution, air dried, placed in cages and inoculated with 10 adults. Treated rice plants are kept at about 28-29° C. and relative humidity of about 50-60%. Percent mortality is recorded after 72 hours.

[8] = test system: Rice Brown Plant Hopper (Nilaparvata lugens); assay: Rice brown plant hopper spray test on rice seedlings; settings: 72 h, read-out: mortality in comparison with untreated controls
Protocol: B.8 Rice Brown Plant Hopper (Nilaparvata lugens)
as §3, with “compounds is” for “compounds are”, “acetone:water (vol:vol)” for “acetone:water (vol:vol),”, “620) was” for “620) is”

[9] = test system: Green Soldier Stink Bug (Nezara viridula); assay: Green soldier stink bug spray test on soybean pods; settings: 120 h, sprayed soybean pods, 3rd instar, 5 days, read-out: mortality in comparison with untreated controls
Protocol: B.10 Green Soldier Stink Bug (Nezara viridula)
The active compound is dissolved at the desired concentration in a mixture of 1:1 (vol:vol) distilled water:aceteone. Surfactant (Kinetic HV) is added at a rate of 0.01% (vol/vol). The test solution is prepared at the day of use.
Soybean pods were placed in microwavable plastic cups lined with moist filter paper and inoculated with ten 3rd instar N. viridula. Using a hand atomizer, approximately 2 ml solution is sprayed into each cup. Treated cups were kept at about 28-29° C. and relative humidity of about 50-60%. Percent mortality was recorded after 5 days.

[10] = test system: Diamond Back Moth (Plutella xylostella); assay: Diamond back moth cabbage leaf dip test; settings: foliar, 72 h, read-out: mortality in comparison with untreated controls
Protocol: B.9 Diamond Back Moth (Plutella xylostella)
The active compound is dissolved at the desired concentration in a mixture of 1:1 (vol:vol) distilled water:aceteone. Surfactant (Alkamuls® EL 620) is added at a rate of 0.1% (vol/vol). The test solution is prepared at the day of use.
Leaves of cabbage were dipped in test solution and air-dried. Treated leaves were placed in petri dish eslined with moist filter paper and inoculated with ten 3rd instar larvae. Mortality was recorded 72 hours after treatment. Feeding damages were also recorded using a scale of 0-100%.

N#CCC(=O)/N=c1\ccccn1Cc1ccc(Cl)nc1 [I.A-1]
≥ 75%: mortality at 2500 ppm [1] | mortality at 2500 ppm [2] | mortality at 500 ppm [4] | mortality at 500 ppm [5] | mortality at 500 ppm [6] | mortality at 500 ppm [7] | mortality at 500 ppm [8]
> 75%: mortality at 500 ppm [3] | mortality at 500 ppm [9]

N#CC1(C(=O)/N=c2\ccccn2Cc2ccc(Cl)nc2)CC1 [I.B-1]
> 75%: mortality at 500 ppm [10]
≥ 75%: mortality at 2500 ppm [1] | mortality at 2500 ppm [2] | mortality at 500 ppm [4] | mortality at 500 ppm [6] | mortality at 500 ppm [7] | mortality at 500 ppm [8]
